From paper PMC10468298, “Umami taste perception and preferences of the domestic cat (Felis catus), an obligate carnivore” (Chemical Senses, 2023)
Like-named read-outs stand apart in the source and are kept apart here.

Experiments:
cats [1] = experiment: 2-bottle taste choice test, cat water panel, 18-h exposure; format: in vivo, domestic cat (Felis catus)
Experimental: The minimum panel size was n = 14, but only for one study with 80 mM MSG; in all other cases, the minimum panel size was n = 21. The maximum panel size was n = 24. […] For those cases, we have also reported the number of unique cats, as some cats were present in more than one study. All cats on the panel had previously been habituated and screened for suitability to perform this type of study. […] The cats were re-homed once they completed their tenure at the Waltham Petcare Science Institute, as per standard Waltham practice.
Solutions were made with deionized water (Purite, UK). […] In some cases, salts were purchased instead of the pure compound due to solubility, stability, or availability. For all the solutions, the pH range spanned approximately 5–8.
Choice tests for the taste compound solutions at specific concentrations were run over an 18-h period using a 2-bottle testing apparatus. […] All animal studies conformed with the Mars Animal Research Policy (www.Mars.com) and were approved by the Waltham Animal Welfare and Ethical Review Body.
Using a bespoke statistical analysis toolkit, based on R software (R Foundation, Vienna, Austria), a mixed model analysis was performed on the difference in intake (g) between water solutions, including cat (random) as a factor where appropriate. This was used to test the mean intake difference versus 0, i.e. no difference, at a 5% significance level. The mean difference in intake was reported with a 95% confidence interval. Any data errors (e.g. following manual error such as solution spillage, overflow) were removed from the final data set for analysis.

cats [2] = experiment: Taste choice test, cat water panel, 1-hr exposure; format: in vivo, domestic cat (Felis catus)
Experimental: All taste choice tests with 1-hr exposure period were run as outlined in the Materials and Methods, with the following differences. The minimum panel size was n = 24 and the maximum panel size was n = 25. […] The cats were water-restricted for 1-hr prior to the 1-hr water exposure period, with their first meal given in the last 20-min of the water restriction. 50 mL of each test solution was offered to the cats in round water bowls with a maximum capacity 150 mL (Flyte So Fancy, UK), which were held in bespoke bowl holders (TECHNIK – A Division of Syspal Ltd., UK).

cat Tas1r1-Tas1r3 [3] = target: T1, cat Tas1r1-Tas1r3 (Felis catus, UniProt A0ABI7Z2I4); experiment: Calcium mobilization assay (FLIPR) in HEK293T cells expressing cat Tas1r1-Tas1r3 and mGα15i1; conditions: for Activity as agonist or enhancer of the cat umami receptor: alone and with 0.2 mM IMP
T1 sequence (A0ABI7Z2I4 entry or part of it): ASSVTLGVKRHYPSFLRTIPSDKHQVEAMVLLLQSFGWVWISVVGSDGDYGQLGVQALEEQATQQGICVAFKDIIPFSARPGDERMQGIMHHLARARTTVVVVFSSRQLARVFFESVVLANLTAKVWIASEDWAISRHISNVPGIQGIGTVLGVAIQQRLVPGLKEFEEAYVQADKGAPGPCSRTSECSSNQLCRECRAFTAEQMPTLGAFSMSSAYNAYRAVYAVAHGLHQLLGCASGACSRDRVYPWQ
T1 sequence (Q49KI5 25-865, further chain): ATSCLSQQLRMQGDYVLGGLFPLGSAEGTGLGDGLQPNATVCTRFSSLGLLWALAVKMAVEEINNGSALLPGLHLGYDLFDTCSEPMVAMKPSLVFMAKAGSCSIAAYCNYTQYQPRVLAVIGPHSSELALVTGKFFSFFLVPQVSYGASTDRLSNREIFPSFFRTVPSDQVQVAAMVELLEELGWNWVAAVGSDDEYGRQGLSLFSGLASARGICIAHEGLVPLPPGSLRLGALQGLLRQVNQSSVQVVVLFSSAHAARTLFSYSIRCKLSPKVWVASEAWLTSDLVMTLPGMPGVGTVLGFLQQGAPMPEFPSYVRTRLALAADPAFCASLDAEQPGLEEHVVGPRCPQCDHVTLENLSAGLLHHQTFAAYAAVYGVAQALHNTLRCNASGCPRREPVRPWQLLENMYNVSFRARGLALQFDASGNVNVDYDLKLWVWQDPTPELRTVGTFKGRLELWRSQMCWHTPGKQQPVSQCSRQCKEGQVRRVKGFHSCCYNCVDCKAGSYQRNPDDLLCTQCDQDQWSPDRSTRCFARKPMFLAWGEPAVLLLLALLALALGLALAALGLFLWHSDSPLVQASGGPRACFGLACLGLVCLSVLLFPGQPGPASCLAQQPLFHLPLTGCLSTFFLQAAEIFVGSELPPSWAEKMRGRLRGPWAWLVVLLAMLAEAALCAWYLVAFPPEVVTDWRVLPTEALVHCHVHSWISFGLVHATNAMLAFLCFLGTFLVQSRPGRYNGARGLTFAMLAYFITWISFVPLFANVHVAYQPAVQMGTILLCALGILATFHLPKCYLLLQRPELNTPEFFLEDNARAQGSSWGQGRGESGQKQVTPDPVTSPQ
Experimental: Cat Tas1r1 and cat Tas1r3 were also stably transfected, but the GeneSwitch system (Invitrogen) was used, resulting in expression which had to be induced by adding 0.1 nM mifepristone to the cells 48 h prior to the experiment. […] Expression constructs were transfected into the HEK293T cell line using Lipofectamine 2000 according to the manufacturer’s recommendations. […] The cell line was maintained in Dulbecco’s MEM High-Glucose supplemented with Glutamax-I (Gibco) and with 10% dialyzed fetal bovine serum, 1% Penicillin/Streptomycin, 100 µg/mL G418, 100 µg/mL Hygromycin, 10 µg/mL Zeocin, 2.5 µg/mL Blasticidin, and 0.5 µg/mL Puromycin.
(§1) These and other test compounds were stored at −20 °C and freshly prepared in the assay buffer on the day of the experiments. […] For the functional expression work, the solubility of amino acids was improved by sonication.
The calcium mobilization experiments were performed using a FLIPR Tetra (Molecular Devices). […] Twenty-four hours later, 0.1 nM mifepristone was added to each well to induce expression of cat Tas1r1 and cat Tas1r3. […] Forty-eight hours after induction with mifepristone, the medium was removed from the cells and 20 μL loading buffer (Tyrode’s buffer + 2 μM Fluo4 AM + 100 μM probenecid) was added, and the plate was incubated for 40 min at 37 °C and then transferred for another 20 min at room temperature. The cells were then washed two times with Tyrode’s buffer using an automated plate washer (Biotek) and incubated for 20 min at room temperature in the dark. The cells were then washed a further two times before being transferred to the FLIPR Tetra.
Concentration–response curves, each with 8 concentration points, were established by plotting signal amplitudes versus agonist concentration. The half maximal effective concentrations (EC50) were identified by nonlinear regression using a variable slope model with the equation Y = Bottom + (X^Hillslope) × (Top-Bottom)/(X^HillSlope + EC50^HillSlope), where Y is the response, and X is the agonist concentration, Top and Bottom are the plateaus in the same units as Y and HillSlope is the Slope factor or Hill slope. All calculations and plots were done using GraphPad Prism 8 (GraphPad Software, CA). […] In these cases, the EC50 was noted as being higher than the maximum concentration used in the assay.

cat Tas1r1-Tas1r3 [4] = target: T1, cat Tas1r1-Tas1r3; design: method as in Toda et al. 2021; conditions: ref Toda et al. 2021, cited from earlier work; for Activation of cat Tas1r1-Tas1r3: tested alone
cats [5] = system: cats; design: method as in Beauchamp et al. 1977; conditions: 10, 20, 40 and 80 mM versus water, 1-h; ref Beauchamp et al. 1977; cited from earlier work
cat Tas1r1 VFT = system: cat Tas1r1 VFT; design: method as in Belloir et al. 2017; conditions: intrinsic tryptophan fluorescence; ref Belloir et al. 2017; cited from earlier work
cats [6] = conditions: cited from earlier work; for Behavioral response of cats to the solutions: acidic solutions, ref Beauchamp et al. 1977, McGrane et al. 2013
cats [7] = system: cats; design: method as in White and Boudreau 1975; conditions: 0.5, 5.0 and 50.0 mM in 50 mM saline versus 50 mM saline, 24-h; ref White and Boudreau 1975; cited from earlier work
[8] = Solubility of amino acids in assay buffer / water; conditions: Tyrode's buffer pH 7.4, sonication
Experimental: as §1

[9] = amino acid 25 mM versus L-Serine 25 mM
[10] = amino acid 25 mM versus L-Tryptophan 25 mM
[11] = amino acid 25 mM versus L-Asparagine 25 mM

SMILES: Nc1ncnc2c1ncn2[C@@H]1O[C@H](COP(=O)(O)O)[C@@H](O)[C@H]1O [AMP, Adenosine 5ʹ-monophosphate]
- Intake diff. (cats [1]; nucleotide 5 mM versus water): 25.4 g
- Intake diff. (cats [2]; nucleotide 5 mM versus water): 20.6 g

SMILES: Nc1ccn([C@@H]2O[C@H](COP(=O)(O)O)[C@@H](O)[C@H]2O)c(=O)n1 [CMP, Cytidine 5ʹ-monophosphate]
- Intake diff. (cats [1]; nucleotide 5 mM versus water): 69.5 g

SMILES: Nc1nc2c(ncn2[C@@H]2O[C@H](COP(=O)(O)O)[C@@H](O)[C@H]2O)c(=O)[nH]1 [GMP, Guanosine 5ʹ-monophosphate]
- EC50 (cat Tas1r1-Tas1r3 [3]): 0.32 mM
- Concentration at which the assay started to respond (cat Tas1r1-Tas1r3 [3]; nucleotide alone): around 0.1 mM
- Intake diff. (cats [1]; nucleotide 5 mM versus water): 78.8 g
- Concentration at which the assay started to respond (cat Tas1r1-Tas1r3 [4]; rat Gα15 chimera): around 0.01 mM
- Activation of cat Tas1r1-Tas1r3 (cat Tas1r1-Tas1r3 [4]): strongly activated

SMILES: NCC(=O)O [Glycine]
- Intake diff. (cats [1]; amino acid 25 mM versus water): 20.8 g
- Intake diff. (cats [2]; amino acid 25 mM versus water): 9.1 g
- Behavioral response of cats (cats [5]): indifferent

SMILES: C[C@H](N)C(=O)O [L-Alanine, reference compound]
- EC50 (cat Tas1r1-Tas1r3 [3]): 15.5 mM
- Intake diff. (cats [1]; amino acid 25 mM versus water): 30.5 g
- Ligand binding to cat Tas1r1 VFT (conformational change) (cat Tas1r1 VFT): active
- Intake diff. (cats [2]; amino acid 25 mM versus water): 16.9 g
- Behavioral response of cats (cats [5]): may be preferred to water

SMILES: N=C(N)NCCC[C@H](N)C(=O)O [L-Arginine]
- Ligand binding to cat Tas1r1 VFT (conformational change) (cat Tas1r1 VFT): active

SMILES: NC(=O)C[C@H](N)C(=O)O [L-Asparagine]
- EC50 (cat Tas1r1-Tas1r3 [3]; read-out: wIMP EC50, L-amino acid with 0.2 mM IMP): 15.7 mM
- Intake diff. (cats [1]; [9]): 12.0 g
- Intake diff. (cats [1]; [10]): -20.9 g
- Intake diff. (cats [1]; amino acid 25 mM versus water): 35.9 g

SMILES: N[C@@H](CC(=O)O)C(=O)O [L-Aspartic acid]
- Activity as agonist or enhancer of the cat umami receptor (cat Tas1r1-Tas1r3 [3]): did not respond
- Behavioral response of cats to the solutions (cats [6]): avoided

SMILES: N[C@@H](CS)C(=O)O [L-Cysteine]
- EC50 (cat Tas1r1-Tas1r3 [3]): 13.1 mM
- Intake diff. (cats [1]; amino acid 25 mM versus water): 48.3 g
- Ligand binding to cat Tas1r1 VFT (conformational change) (cat Tas1r1 VFT): inactive
- Intake diff. (cats [2]; amino acid 25 mM versus water): 27.9 g

SMILES: N[C@@H](CCC(=O)O)C(=O)O [L-Glutamic acid]
- Activity as agonist or enhancer of the cat umami receptor (cat Tas1r1-Tas1r3 [3]): did not respond
- Behavioral response of cats to the solutions (cats [6]): avoided
- Activation of cat Tas1r1-Tas1r3 (cat Tas1r1-Tas1r3 [4]): inactive alone
- Behavioral response of cats (cats [5]): avoided

SMILES: N[C@@H](Cc1c[nH]cn1)C(=O)O [L-Histidine]
- EC50 (cat Tas1r1-Tas1r3 [3]): 9.71 mM
- Intake diff. (cats [1]; [11]): 77.0 g
- Intake diff. (cats [1]; [9]): 91.5 g
- Intake diff. (cats [1]; [10]): 97.0 g
- Intake diff. (cats [1]; amino acid 25 mM versus water): 43.7 g
- Ligand binding to cat Tas1r1 VFT (conformational change) (cat Tas1r1 VFT): active
- Behavioral preference of cats (cats [6]; 100 mM, ref McGrane et al. 2013): significant behavioral preference
- Behavioral response of cats (cats [7]): preferred

SMILES: CC[C@H](C)[C@H](N)C(=O)O [L-Isoleucine]
- Ligand binding to cat Tas1r1 VFT (conformational change) (cat Tas1r1 VFT): active

SMILES: CC(C)C[C@H](N)C(=O)O [L-Leucine]
- EC50 (cat Tas1r1-Tas1r3 [3]): 31.7 mM
- Intake diff. (cats [1]; amino acid 25 mM versus water): 36.6 g
- Intake diff. (cats [2]; amino acid 25 mM versus water): 22.5 g

SMILES: CSCC[C@H](N)C(=O)O [L-Methionine]
- EC50 (cat Tas1r1-Tas1r3 [3]): > 30 mM
- Intake diff. (cats [1]; amino acid 25 mM versus water): 35.8 g

SMILES: N[C@@H](Cc1ccccc1)C(=O)O [L-Phenylalanine]
- Intake diff. (cats [1]; amino acid 25 mM versus water): 34.5 g
- Intake diff. (cats [2]; amino acid 25 mM versus water): 19.4 g

SMILES: N[C@@H](CO)C(=O)O [L-Serine]
- EC50 (cat Tas1r1-Tas1r3 [3]): 14.1 mM
- Intake diff. (cats [1]; amino acid 25 mM versus water): 25.3 g
- Intake diff. (cats [2]; amino acid 25 mM versus water): 18.0 g

SMILES: N[C@@H](Cc1c[nH]c2ccccc12)C(=O)O [L-Tryptophan]
- EC50 (cat Tas1r1-Tas1r3 [3]): 6.32 mM
- Intake diff. (cats [1]; [11]): 20.9 g
- Intake diff. (cats [1]; [9]): -11.6 g
- Intake diff. (cats [1]; amino acid 25 mM versus water): 8.4 g
- Behavioral response of cats (cats [7]): avoided
- Intake diff. (cats [2]; amino acid 25 mM versus water): 10.0 g
- Solubility in assay buffer [8]: insoluble at 60 mM

SMILES: N[C@@H](Cc1ccc(O)cc1)C(=O)O [L-Tyrosine]
- EC50 (cat Tas1r1-Tas1r3 [3]): 22.2 mM
- Intake diff. (cats [1]; amino acid 2.5 mM versus water): -1.8 g

SMILES: N[C@@H](CCC(=O)O)C(=O)[O-].[Na+] [MSG, monosodium glutamate]
- Intake diff. (cats [1]; MSG 20 mM versus water): 22.2 g
- Intake diff. (cats [1]; MSG 80 mM versus water): -7.9 g

SMILES: NCCS(=O)(=O)O [Taurine]
- Activity as agonist or enhancer of the cat umami receptor (cat Tas1r1-Tas1r3 [3]): inactive

SMILES: O=c1ccn([C@@H]2O[C@H](COP(=O)(O)O)[C@@H](O)[C@H]2O)c(=O)[nH]1 [UMP, Uridine 5ʹ-monophosphate]
- Intake diff. (cats [1]; nucleotide 5 mM versus water): 67.0 g

SMILES: O=c1[nH]c(=O)c2ncn([C@@H]3O[C@H](COP(=O)(O)O)[C@@H](O)[C@H]3O)c2[nH]1 [XMP, Xanthosine 5ʹ-monophosphate]
- EC50 (cat Tas1r1-Tas1r3 [3]): 0.48 mM
